Results taken from paper PMC8949075, “Evaluation of Two Novel Hydantoin Derivatives Using Reconstructed Human Skin Model Episkin^TM: Perspectives for Application as Potential Sunscreen Agents” (Molecules, 2022).
Each block holds one compound with its values, some of them ahead of it.

Tests used:
[1] = Episkin skin permeation test (finite dose, OECD 428); assay type: in vitro ADME, human; settings: human; 24 h exposure, 10 mg/cm^2 finite dose, 2% formulation; read-out: recovery in the epidermis (of the applied dose)
Protocol: (§1) The MM was provided by the manufacturer.
(§2) The receptor fluid composition was based on the pilot experiments.
(§3) The formulations of the test compounds (JH3 and JH10) and commercial UV filters were applied onto the skin surface in the donor compartment in a net dose of 10 mg/cm^2 (finite dose application) using disposable flexible loops. To quantify the dose of the formulation applied on the top of the Episkin^TM model, the loops were weighed, filled with approximately 11 mg of formulation, and then reweighed. The difference in weight was used as the amount of formulation applied. Commercial UV filters such as BP3, 4MBC, and AVO were used as reference standards. The filters were obtained from Sigma-Aldrich, Darmstadt, Germany.
(§4) The plate with tissues was embedded with parafilm and incubated at specific time points at 32 °C. As the passive diffusion of chemicals (and therefore their skin absorption) is affected by temperature, the diffusion chamber and skin were maintained at a constant temperature close to normal skin temperature of 32 ± 1 °C [19, 23, 30, 32]. At fixed time points (0, 1, 2, 3, 4, 5, 6, and 24 h), aliquots of the receptor fluid (0.5 mL) were collected from the receptor compartment and immediately replaced with fresh fluid. After 24 h the entire receptor fluid was collected, and the skin surface was washed thoroughly with cotton buds impregnated in methanol (5 times). The tissues were removed from the inserts and both the donor and receptor compartments were washed separately with methanol. The samples were stored at −20 °C until chemical analysis.
(§5) All samples were spiked with 25 µL of pentoxifylline (PTX, Sigma-Aldrich, Darmstadt, Germany) (final concentration of 20 µM) used as an internal standard prior to extraction. The samples were analyzed using ultra high-pressure liquid chromatography coupled with mass spectrometry (UHPLC/MS; Waters Corporation, Milford, MA, USA). Quantification was based on peak area and calculated from standard calibration curves of the compound adjusted by the internal standard area. The assay was in agreement with the Organization for Economic Co-operation and Development (OECD) guideline 428 [19].

[2] = tested on: Episkin^TM reconstructed human epidermis; assay: as above; assay type: in vitro ADME; settings: 2% formulation; for absorbed amount detected in the RF (of the applied dose): 24 h exposure, 10 mg/cm^2 finite dose; for detection in the receptor fluid over time: sampling 0-6 and 24 h; for detection in the receptor fluid over time / absorption rate (amount in receptor fluid): 10 mg/cm^2; for absorption rate (amount in receptor fluid): after 24 h
Protocol: as §1, §2, §3, §4, §5

[3] = CHO-K1 cytotoxicity assay (MTT); assay type: cell-based; settings: Chinese hamster, CHO-K1 cells, concentrations ranging from 1 to 10 µM
Protocol: The Chinese hamster ovary CHO-K1 cell line was obtained from the American Type Culture Collection (ATCC CCL-61). The CHO-K1 cell line was cultured in a humidified incubator at 37 °C with 5% CO2, in F-12K Medium (Kaighn’s Modification of Ham’s F-12 Medium) (ATCC) supplemented with 10% fetal bovine serum (FBS; Gibco, Waltham, MA, USA) and antibiotics (1% streptomycin/penicillin salts mixture, Sigma–Aldrich, Darmstadt, Germany).
The cells were seeded at a density of 6 × 10^3 on 96-well plates. […] Test compounds and 4MBC were dissolved in DMSO (solvent, final concentration 0.1%) and ethanol (co-solvent, final concentration 1%). At the end of the incubation period, 10 µL of MTT reagent was added to each well. After 4 h incubation (37 °C, 5% CO2), the medium was discarded, and the formazan produced in the cells appeared as dark crystals in the bottom of the wells. Next, pure DMSO was added to each well. The optical density data of converted dye was measured at 570 nm (A570) on microplate reader. […] The experiment was conducted two times with three repetitions for each condition.

[4] = tested on: CHO-K1 cells; assay: In vitro micronucleus assay; assay type: cell-based, Chinese hamster
Protocol: The CHO-K1 cells were seeded in 6-well plates at a density of 1 × 10^6 cells/well and incubated overnight at 37 °C, 5% CO2 atmosphere. […] The test compounds and 4MBC were dissolved in DMSO (solvent, final concentration 0.1%) and ethanol (co-solvent, final concentration 1%). After 24 h of treatment, the medium was removed, and the cells were rinsed with PBS. Then, fresh medium containing cytochalasin B (CytB; Sigma Aldrich, Darmstadt, Germany) (4.5 µg/mL) was added and incubation was continued for the next 24 h.
After the incubation period, the cells were washed with fresh medium, detached by trypsinization, and centrifuged. The supernatant was discarded and 5 mL of 1% ice-cold sodium citrate (Chempur, Piekary Śląskie, Poland) was added to the cell pellet, which was then gently resuspended. After 15 s, 5 mL of freshly prepared fixative solution (methanol/acetic acid, 3:1) and 4 drops of formaldehyde were added. The cell suspension was centrifuged (5 min, 1000 rpm), the supernatant was discarded again, and the pellet was fixed in fixative mixture two more times, without formaldehyde. After the third fixation, part of the supernatant was removed, and around 1 mL of the supernatant was retained to resuspend the cells. The suspension was then dripped onto clean, previously frozen, glass slides to dry. After air-drying, the slides were stained with Giemsa dye (1:20 in phosphate buffer) for 5 min [56, 78, 79].
One thousand binucleated cells per slide with intact nuclei of equal size, similar pattern of cytoplasm staining, intact membrane, and distinguishable from adjacent cells, without apoptotic and necrotic cells were analyzed. Only the micronuclei with the same morphology and color of the main nuclei, with 1/16 to 1/3 of the major nucleus diameter, unrefringent and not overlapping or connected to the main nuclei were counted. Moreover, the presence of dicentric bridges (DB) and nuclear buds (NB) in the binucleated cells was analyzed. The nuclear division index (NDI) was calculated using the following formula: [(1 × MOC) + (2 × BC) + (3 × MUC)]/N, where MOC is the number of mononuclear cells, BC is the number of binuclear cells, MUC represents the number of multinuclear cells, and N is the total number of scored cells. The micronucleus incidence was presented as a number of micronuclei per 1000 examined binuclear cells. The experiment was conducted two times with three repetitions for each condition.

[5] = design: method as in PMID 26674115; settings: cited from earlier work
[6] = design: method as in earlier work; settings: cited from earlier work
[7] = cited from earlier work
[8] = Episkin phototoxicity test (UVA 50 J/cm^2; MTT viability, Il-1α release); assay type: cell-based, human; settings: human; 0.5 mM, UVA 50 J/cm^2; read-out: tissue viability after UVA exposure compared to non-irradiated epidermis
Protocol: as §1
Compounds JH3 and JH10 (final concentrations of 0.5 and 1 mM) solubilized in ethanol (final concentration of 1% in water) were applied topically on the tissue surface. Chlorpromazine (CPZ, chlorpromazine hydrochloride, C17H19ClN2S·HCl, CAS number: 69-09-0, molecular weight: […], purity: meets USP testing specifications, Sigma-Aldrich, Darmstadt, Germany) (final concentration of 0.5 mM, based on literature data) was used as a positive control, whereas solvent alone served as a negative control.
Duplicate plates were prepared for UVA and dark (controls) exposure purposes. After the treatment period of 2 h, the excess test compound was removed from each well, and the tissues were exposed to UVA at a non-cytotoxic dose of 50 J/cm^2 ([…] at 250 W/m^2) with a solar light simulator equipped with a window glass filter and ID65 filter (Suntest CPS+, Atlas, Linsengericht, Germany). The emitted spectrum contained both UV and visible outputs with a UV cut-on of approx. 320 nm and corresponded to ID65 per ISO 10,977 [74]. The irradiance level between 320 and 400 nm was approximated by the following equation: W/m^2 (320–400 nm) = W/m^2 (300–800 nm) ÷ 11.5. In parallel, the non-irradiated treated tissues were placed in the dark under the same conditions. […] Next, cell viability was assessed using an MTT conversion test and the culture media aliquots were kept frozen (−20 °C) for Il-1α measurement (see 2.3.2. The Episkin^TM skin irritation test method section).

[9] = tested on: Episkin^TM reconstructed human epidermis; assay: Episkin skin irritation test (MTT viability, Il-1α release; OECD 439); settings: 26 mg/cm^2 topical, 15 min exposure, 42 h post-incubation
Description: The Episkin^TM model (aged 13 days, large/1.07 cm^2 surface area) was provided by Episkin (Lyon, France). The Episkin^TM kit consists of 12 reconstructed epidermis units made of type I collagen matrix, representing the dermis, surfaced with a film of type IV collagen, upon which is laid a stratified and differentiated epidermis derived from human keratinocytes [17]. Upon receipt of the tissues, the culture inserts were removed from the agarose-nutrient solution and transferred into 12-well plates containing 2 mL of the maintenance medium (MM) per well. The MM was provided by the manufacturer. Tissues were then incubated for 24 h at 37 °C in a humidified atmosphere of 5% CO2 before use in the permeation, irritation, or phototoxicity experiments.
Prior to the irritation experiments, the Episkin^TM inserts were washed with sterile PBS to remove traces of the MM and transferred into new 12-well plates containing 2 mL of fresh MM. […] Sodium dodecyl sulphate (SDS; Sigma-Aldrich, Darmstadt, Germany) (5% in water) and PBS were used as positive and negative controls, respectively. Both controls were applied topically (26 mg/cm^2). Samples were tested in two independent experiments using three tissues for each chemical, positive, or negative control.
Then, the tissues were placed in new 12-well plates containing 2 mL of the MM per well and incubated for an additional 42 h at 37 °C in a humidified atmosphere of 5% CO2 as post-treatment incubation time. At the end of this period, the culture media of each tissue were collected and stored at −20 °C for Il-1α measurement.
The cell viability was assessed by a subsequent incubation of the tissues for 3 h with freshly prepared 3-(4,5-dimethylthiazol-2-yl)-2,5-diphenyltetrazolium bromide (MTT; Sigma-Aldrich, Darmstadt, Germany) solution (0.3 mg/mL in assay medium (AM)) in a 12-well plate. Then, a biopsy of the epidermis was done using a puncher (Episkin, Lyon, France), and the precipitated formazan was extracted using 500 µL of acidified isopropanol (Chempur, Piekary Śląskie, Poland) (0.04 N HCl in isopropanol) for 48 h (4 °C). At the end of the extraction period, 200 µL of each sample were transferred to 96-well plates for absorbance measurements at 570 nm (A570) [70, 71, 72, 73]. […] Viability (percent of control) was determined by dividing A570 of experimental wells by A570 of control wells × 100%. The test substance was considered as an irritant when mean tissue viability was equal or less than 50% [16, 17].
Il-1α measurement was conducted by a classic enzyme-linked immunosorbent assay (ELISA) technique (Cayman Chemical, Ann Arbor, MI, USA). Firstly, 100 µL of the samples were added into a 96-well ready to use microtiter plate (precoated with a monoclonal antibody specific for Il-1α (Il-1α capture antibody). Secondly, 100 µL of an acetylcholinesterase:Fab’ Conjugate (AChE:Fab’) was added to each well. The plate was covered with plastic film and incubated overnight at 4 °C. At the end of the incubation period the contents of each well were removed and rinsed five times with wash buffer. Next, 200 µL of Ellman’s reagent (containing the substrate for AChE) was added to each well, the plate was covered with plastic film and developed in the dark using an orbital shaker. The absorbance of the wells was measured at 410 nm. Il-1α concentrations were then calculated using the standard curve.

SMILES: Cc1ccc(C=C2C(=O)C3(C)CCC2C3(C)C)cc1 (stereo not drawn) [4MBC, 3-(4-methylbenzylidene) camphor, reference compound]
recovery at 24 h, 2 % in formulation [1]: 28%
absorbed amount detected in the RF (of the applied dose) [2]: 3%
detection in the receptor fluid over time [2]: detected only after 24 h exposure
viability at 24 h [3]: > 75%
DB (dicentric bridges) ([4]; Chinese hamster, 24 h, 1 µM): 4.6
MN (micronuclei) ([4]; Chinese hamster, 24 h, 1 µM): 8.3 ± 2.9
NB (nuclear buds) ([4]; Chinese hamster, 24 h, 1 µM): 3.7
NDI (nuclear division index) ([4]; Chinese hamster, 24 h, 1 µM): 1.35
DB (dicentric bridges) ([4]; Chinese hamster, 24 h, 5 µM): 4.5
MN (micronuclei) ([4]; Chinese hamster, 24 h, 5 µM): 9.0 ± 3.4
NB (nuclear buds) ([4]; Chinese hamster, 24 h, 5 µM): 3.5
NDI (nuclear division index) ([4]; Chinese hamster, 24 h, 5 µM): 1.30
DB (dicentric bridges) ([4]; Chinese hamster, 24 h, 10 µM): 3.4
MN (micronuclei) ([4]; Chinese hamster, 24 h, 10 µM): 7.3 ± 4.4
NB (nuclear buds) ([4]; Chinese hamster, 24 h, 10 µM): 4.9
NDI (nuclear division index) ([4]; Chinese hamster, 24 h, 10 µM): 1.39
log P [5]: 4.95
in vitro chromosomal aberration test result [6]: negative
bacterial mutation (Ames) assay result [7]: negative

recovery at 24 h, 2 % in formulation [1]: 16%
absorbed amount detected in the RF (of the applied dose) [2]: about 1%
absorption rate (amount in receptor fluid) [2]: 3 µg/cm^2
SMILES: COc1ccc(C(=O)CC(=O)c2ccc(C(C)(C)C)cc2)cc1 [AVO, avobenzone]
log P [5]: 4.51

SMILES: CN(C)CCCN1c2ccccc2Sc2ccc(Cl)cc21 [CPZ, Chlorpromazine, reference compound]
viability at 2 h, 0.5 mM [8]: ~40%

recovery at 24 h, 2 % in formulation [1]: 18%
absorbed amount detected in the RF (of the applied dose) [2]: 12%
absorption rate (amount in receptor fluid) [2]: 20 µg/cm^2
detection in the receptor fluid over time [2]: clearly detectable after the third hour
SMILES: COc1ccc(C(=O)c2ccccc2)c(O)c1 [BP3, benzophenone-3]

SMILES: CCCCCCCCCCCCOS(=O)(=O)[O-].[Na+] [SDS, Sodium dodecyl sulphate, reference compound]
Il-1α release [9]: 96 pg/mL
mean tissue viability ([9]; vs negative control): approximately 10%

SMILES: CO[C@@]12[C@H](COC(N)=O)C3=C(C(=O)C(C)=C(N)C3=O)N1C[C@@H]1N[C@@H]12 [MMC, Mitomycin C, reference compound]
increase in the number of MNs vs normal and vehicle control ([4]; 0.5 µg/mL): approximately 10 fold
increase in the number of NBs vs normal and vehicle control ([4]; 0.5 µg/mL): 7 fold
MN (micronuclei) ([4]; 0.5 µg/mL (positive control), count in 1000 binucleated cells per slide): 88.5 ± 6.5
